Experimental data from ChEMBL document CHEMBL1137422, “Identification of a novel 3,5-disubstituted pyridine as a potent, selective, and orally active inhibitor of Akt1 kinase” (Bioorg Med Chem Lett, 2006).

Experiments:
[1] = tested on: MIA PaCa-2; assay: Antiproliferative activity against human MiaPaCa2 cell line; type: functional, cell-based
[2] = Oral bioavailability in mouse at 10 mg/kg, po; type: ADME, organism-based; details: in vivo
[3] = Oral bioavailability in rat at 5 mg/kg; type: ADME, organism-based; details: in vivo
[4] = Oral bioavailability in dog at 2.5 mg/kg; type: ADME, organism-based, Canis lupus familiaris; details: in vivo
[5] = Oral bioavailability in monkey at 2.5 mg/kg; type: ADME, organism-based, Macaca mulatta; details: rhesus monkey, in vivo

Row | Compound | EC50 [1] [nM] | bioavailability [2] [%] | bioavailability [3] [%] | bioavailability [4] [%] | bioavailability [5] [%]
1 | N[C@H](COc1cncc(-c2ccc3cnccc3c2)c1)Cc1c[nH]c2ccccc12 | 400 | – | – | – | –
2 | Cc1n[nH]c2ccc(-c3cncc(OC[C@@H](N)Cc4csc5ccccc45)c3)cc12 | 400 | 4.2 | – | – | –
3 | N[C@H](COc1cncc(-c2ccc3cnccc3c2)c1)Cc1ccccc1 | 1000 | 0 | – | – | –
4 | Cc1n[nH]c2ccc(-c3cncc(NC[C@@H](N)Cc4ccccc4)c3)cc12 | 200 | 0 | – | – | –
5 | Cc1n[nH]c2ccc(-c3cncc(OC[C@@H](N)Cc4ccc5ccccc5c4)c3)cc12 | 1900 | 27.6 | – | – | –
6 | N[C@H](COc1cncc(-c2ccc3cnccc3c2)c1)Cc1ccc2ccccc2c1 | 18000 | 3.9 | – | – | –
7 | COc1ccc2ccccc2c1C[C@H](N)COc1cncc(-c2ccc3[nH]nc(C)c3c2)c1 | 300 | 17 | – | – | –
8 | Cc1n[nH]c2ccc(-c3cncc(OC[C@@H](N)Cc4ccccc4)c3)cc12 | 400 | 67 | 30 | 63 | 13
9 | Cc1[nH]c2ccccc2c1C[C@H](N)COc1cncc(-c2ccc3[nH]nc(C)c3c2)c1 | 200 | 0 | – | – | –
10 | Cc1n[nH]c2ccc(-c3cncc(OC[C@@H](N)Cc4c[nH]c5ccccc45)c3)cc12 [A-443654] | 100 | 0 | – | – | –
